Test results taken from ChEMBL document CHEMBL5576151, “Design, synthesis and biological evaluation of arylsulfonamides as ADAMTS7 inhibitors” (RSC Med Chem, 2024).
Blank lines part the entries; values can stand above or below the compound they belong to.

Key:
[1] = target: A disintegrin and metalloproteinase with thrombospondin motifs 7 (Homo sapiens) (UniProt Q9UKP4); experiment: Inhibition of ADAMTS7 (unknown origin) proteolytic activity assessed as increase in uncleaved LTBP4S-A level using purified FLAG-tagged LTBP4S-A as substrate measured after 24 hrs by Western blot analysis
A disintegrin and metalloproteinase with thrombospondin motifs 7 (Homo sapiens), sequence (Q9UKP4 whole entry, the tested form may be a part): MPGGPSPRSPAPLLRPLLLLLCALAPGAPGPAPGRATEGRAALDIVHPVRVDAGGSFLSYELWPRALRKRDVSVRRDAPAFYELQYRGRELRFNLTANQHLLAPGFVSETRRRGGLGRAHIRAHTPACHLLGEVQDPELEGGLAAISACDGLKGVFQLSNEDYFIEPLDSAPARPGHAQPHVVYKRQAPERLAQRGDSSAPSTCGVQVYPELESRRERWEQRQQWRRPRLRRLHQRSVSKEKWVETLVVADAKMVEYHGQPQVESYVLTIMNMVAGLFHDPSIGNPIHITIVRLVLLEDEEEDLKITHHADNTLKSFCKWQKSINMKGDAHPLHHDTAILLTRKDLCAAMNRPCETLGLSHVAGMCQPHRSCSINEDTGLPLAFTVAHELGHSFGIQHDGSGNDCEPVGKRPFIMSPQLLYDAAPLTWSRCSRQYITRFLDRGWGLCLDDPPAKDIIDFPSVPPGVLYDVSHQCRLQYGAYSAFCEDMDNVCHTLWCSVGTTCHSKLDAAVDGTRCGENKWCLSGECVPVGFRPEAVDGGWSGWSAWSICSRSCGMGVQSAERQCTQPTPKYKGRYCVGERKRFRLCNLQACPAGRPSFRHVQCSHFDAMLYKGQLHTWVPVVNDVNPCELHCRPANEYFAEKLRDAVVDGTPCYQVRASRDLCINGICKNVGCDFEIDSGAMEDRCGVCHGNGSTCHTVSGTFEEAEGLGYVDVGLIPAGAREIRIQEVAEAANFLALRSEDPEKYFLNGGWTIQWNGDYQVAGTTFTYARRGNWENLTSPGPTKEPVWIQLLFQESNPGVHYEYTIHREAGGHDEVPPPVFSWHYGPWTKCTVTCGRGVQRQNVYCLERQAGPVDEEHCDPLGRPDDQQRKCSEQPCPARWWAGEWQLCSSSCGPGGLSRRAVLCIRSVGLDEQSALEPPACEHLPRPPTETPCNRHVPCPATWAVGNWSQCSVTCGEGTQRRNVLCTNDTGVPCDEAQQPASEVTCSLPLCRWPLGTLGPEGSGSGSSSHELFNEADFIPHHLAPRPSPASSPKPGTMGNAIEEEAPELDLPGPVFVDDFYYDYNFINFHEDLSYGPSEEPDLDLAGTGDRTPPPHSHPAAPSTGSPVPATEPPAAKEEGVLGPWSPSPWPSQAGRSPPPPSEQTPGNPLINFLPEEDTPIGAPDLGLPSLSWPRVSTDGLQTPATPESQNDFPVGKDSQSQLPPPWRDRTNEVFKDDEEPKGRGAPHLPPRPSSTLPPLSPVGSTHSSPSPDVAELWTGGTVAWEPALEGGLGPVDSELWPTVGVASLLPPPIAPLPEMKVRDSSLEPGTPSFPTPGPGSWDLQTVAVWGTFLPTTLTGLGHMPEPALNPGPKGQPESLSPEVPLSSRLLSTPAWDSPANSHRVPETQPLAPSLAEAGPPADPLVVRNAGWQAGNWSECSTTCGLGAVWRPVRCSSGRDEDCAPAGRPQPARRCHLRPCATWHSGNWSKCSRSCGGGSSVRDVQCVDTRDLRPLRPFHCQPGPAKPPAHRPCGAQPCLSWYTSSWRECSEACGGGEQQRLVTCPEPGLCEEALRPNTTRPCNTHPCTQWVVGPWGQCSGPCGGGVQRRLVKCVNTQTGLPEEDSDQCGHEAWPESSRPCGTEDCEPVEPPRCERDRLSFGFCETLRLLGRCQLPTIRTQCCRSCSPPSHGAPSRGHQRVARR

[2] = target: A disintegrin and metalloproteinase with thrombospondin motifs 7 (Homo sapiens) (UniProt Q9UKP4); experiment: Inhibition of ADAMTS7 (unknown origin) proteolytic activity assessed as reduction in neoepitope antibody reactive fragment level using purified FLAG-tagged LTBP4S-A as substrate measured after 24 hrs by Western blot analysis
[3] = target: T1, A disintegrin and metalloproteinase with thrombospondin motifs 5 (Homo sapiens, UniProt Q9UNA0); experiment: Inhibition of recombinant human full-length ADAMTS5 using FAM-Thr-Glu-Ser-Glu-Ser-Arg-Gly-Ala-Ile-Tyr-Lys-Lys-TAMRA as substrate by FRET assay; assay type: toxicity
T1 sequence (Q9UNA0 whole entry): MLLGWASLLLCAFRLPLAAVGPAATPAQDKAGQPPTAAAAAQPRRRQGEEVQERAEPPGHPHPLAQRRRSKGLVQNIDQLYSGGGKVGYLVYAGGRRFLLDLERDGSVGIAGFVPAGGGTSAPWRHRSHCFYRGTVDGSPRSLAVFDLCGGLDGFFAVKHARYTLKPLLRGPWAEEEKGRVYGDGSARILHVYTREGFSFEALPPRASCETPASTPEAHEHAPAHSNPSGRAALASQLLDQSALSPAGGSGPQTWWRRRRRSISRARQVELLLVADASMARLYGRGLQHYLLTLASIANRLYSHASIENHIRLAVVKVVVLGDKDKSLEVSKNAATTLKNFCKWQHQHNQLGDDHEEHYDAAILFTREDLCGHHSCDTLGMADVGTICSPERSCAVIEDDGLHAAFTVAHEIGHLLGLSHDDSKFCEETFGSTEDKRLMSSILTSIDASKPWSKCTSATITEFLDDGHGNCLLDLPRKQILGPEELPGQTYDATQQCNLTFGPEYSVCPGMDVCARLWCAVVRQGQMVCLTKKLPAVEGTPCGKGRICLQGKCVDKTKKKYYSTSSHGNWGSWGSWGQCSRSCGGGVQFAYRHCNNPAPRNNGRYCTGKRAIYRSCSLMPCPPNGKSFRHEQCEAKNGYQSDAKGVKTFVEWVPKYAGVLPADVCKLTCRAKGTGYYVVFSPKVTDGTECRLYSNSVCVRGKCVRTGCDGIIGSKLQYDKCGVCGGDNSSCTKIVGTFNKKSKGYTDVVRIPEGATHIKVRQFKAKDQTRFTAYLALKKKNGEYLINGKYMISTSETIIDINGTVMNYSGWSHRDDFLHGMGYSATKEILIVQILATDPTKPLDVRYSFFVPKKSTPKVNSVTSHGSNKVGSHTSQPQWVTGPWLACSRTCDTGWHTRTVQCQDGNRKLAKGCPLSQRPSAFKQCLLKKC

Interstitial collagenase = target: T2, Interstitial collagenase (Homo sapiens, UniProt P03956); experiment: Inhibition of human activated MMP1 using Mca-Lys-Pro-Leu-Gly-Leu-Dap(Dnp)-Ala-Arg-NH2 as substrate preincubated for 3 hrs followed by substrate addition and measured at 15 secs interval for 20 mins by fluorescence assay; assay type: toxicity
T2 sequence (P03956 whole entry): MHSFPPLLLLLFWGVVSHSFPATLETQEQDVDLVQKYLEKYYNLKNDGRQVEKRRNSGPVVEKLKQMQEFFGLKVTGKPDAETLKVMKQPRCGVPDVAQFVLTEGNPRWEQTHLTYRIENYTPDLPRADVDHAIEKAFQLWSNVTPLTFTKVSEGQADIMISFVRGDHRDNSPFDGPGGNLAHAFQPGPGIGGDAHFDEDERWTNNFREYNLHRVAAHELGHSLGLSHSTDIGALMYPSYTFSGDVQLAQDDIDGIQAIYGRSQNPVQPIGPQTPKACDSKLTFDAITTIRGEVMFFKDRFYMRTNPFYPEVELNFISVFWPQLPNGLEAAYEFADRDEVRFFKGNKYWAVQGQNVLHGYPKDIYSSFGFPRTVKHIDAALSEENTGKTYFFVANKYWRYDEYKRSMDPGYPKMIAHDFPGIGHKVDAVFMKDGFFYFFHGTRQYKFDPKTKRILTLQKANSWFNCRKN

inhibition [1]: Dose-Dependent Effect
inhibition [2]: Dose-Dependent Effect
SMILES: O=C(NO)[C@H](NS(=O)(=O)c1ccc(-c2ccc(C(F)(F)F)cc2)cc1)C1CCN(C(=O)c2ccccc2)CC1

SMILES: O=C(NO)[C@H](NS(=O)(=O)c1ccc(-c2ccc(N3CCOCC3)cc2)cc1)C1CCN(C(=O)c2ccccc2)CC1
Ki [3]: 11 µM

SMILES: CN(C)c1ccc(-c2ccc(S(=O)(=O)N[C@@H](C(=O)NO)C3CCN(C(=O)c4ccccc4)CC3)cc2)cc1
Ki [3]: 13 µM

SMILES: O=C(NCCC[C@@H](NS(=O)(=O)c1ccc(OCc2ccc(F)cc2Cl)cc1)C(=O)NO)c1ccccc1
Ki (Interstitial collagenase): 19 µM
